Read-outs that look alike come from different tables or passages of the source.
Experiments:
Assay type in all cases: in vitro ADME
UGT1A1 = target: T1, UGT1A1 (Homo sapiens, UniProt P22309); assay: Recombinant UGT1A1-catalyzed 4-MU glucuronidation inhibition; conditions: pH 7.4, probe 4-methylumbelliferone (4-MU), UGT1A1, 100 μM of compound, 4-MU substrate, read-out: residual activity
T1 construct: purchased BD Gentest Corp. (Woburn, MA, USA); host or cells: baculovirus-infected insect cells
T1 sequence (P22309 26-533): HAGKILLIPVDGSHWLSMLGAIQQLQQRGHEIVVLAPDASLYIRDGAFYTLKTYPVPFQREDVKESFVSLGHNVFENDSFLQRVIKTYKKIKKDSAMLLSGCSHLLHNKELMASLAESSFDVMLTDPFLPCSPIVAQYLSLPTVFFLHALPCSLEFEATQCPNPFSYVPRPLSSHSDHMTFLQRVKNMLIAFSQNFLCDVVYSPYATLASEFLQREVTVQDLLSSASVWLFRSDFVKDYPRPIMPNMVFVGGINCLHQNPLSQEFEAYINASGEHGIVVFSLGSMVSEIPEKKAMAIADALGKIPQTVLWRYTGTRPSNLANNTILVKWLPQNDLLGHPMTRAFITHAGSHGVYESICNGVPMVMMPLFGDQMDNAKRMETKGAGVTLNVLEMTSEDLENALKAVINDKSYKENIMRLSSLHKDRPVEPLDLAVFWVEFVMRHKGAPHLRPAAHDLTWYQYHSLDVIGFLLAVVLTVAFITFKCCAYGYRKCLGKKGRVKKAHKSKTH
Excerpt: (§1) 4-Methylumbelliferone (4-MU), 4-methylumbelliferone-β-D-glucuronide (4-MUG), Tris-HCl, 7-hydroxycoumarin, and uridine-5′-diphosphoglucuronic acid (UDPGA) (trisodium salt) were purchased from Sigma-Aldrich (St. Louis, MO). Recombinant human UGT isoforms (UGT1A1, UGT1A3, UGT1A4, UGT1A6, UGT1A7, UGT1A8, UGT1A9, UGT1A10, UGT2B4, UGT2B7, and UGT2B15) expressed in baculovirus-infected insect cells were obtained from BD Gentest Corp. (Woburn, MA, USA). Ophiopogonin D (OD), ophiopogonin D′ (OD′), methylophiopogonanone A (MA), methylophiopogonanone B (MB), and ruscorectal (RU) were purchased from Sichuan Weikeqi Biotechnology Company (Chengdu, Sichuan, China). The purity of these compounds was above 95%. All other reagents were of HPLC grade or of the highest grade commercially available.
(§2) 4-MU, the nonspecific probe substrate for all the UGT isoforms except UGT1A4, was used in the present study to initially screen the inhibition potential of maidong's components towards UGT isoforms as previously reported. In brief, the incubation system (total volume = 200 μL) consisted of recombinant UGTs, 5 mM UDPGA, 5 mM MgCl2, 50 mM Tris-HCl (pH = 7.4), and 4-MU in the absence or presence of different concentrations of maidong's components. The compounds were dissolved in DMSO, and the final concentration of DMSO was below 0.5% (v/v). The used incubation time and protein concentration were previously determined to ensure the reaction rate within the linear range. The 4-MU concentration was equal to known K m or S 50 values for each UGT isoform. After 5 min preincubation at 37°C, the incubation reaction was initiated via adding UDPGA to the mixture system. The reactions were quenched by adding 100 μL acetonitrile with 7-hydroxycoumarin (100 μM) as internal standard. Centrifuged at 20000 ×g for 10 min, an aliquot of supernatant was transferred to an autoinjector vial for HPLC analysis. The HPLC system (Shimadzu, Kyoto, Japan) contained a SCL-10A system controller, two LC-10AT pumps, a SIL-10A autoinjector, and a SPD-10AVP UV detector. Chromatographic separation was carried out using a C18 column (4.6 × 200 mm, 5 μm, Kromasil) at a flow rate of 1 mL/min and UV detector at 316 nm. The mobile phase consisted of acetonitrile (A) and H2O containing 0.5% (v/v) formic acid (B). The following gradient condition was used: 0–15 min, 95–40% B; 15–20 min, 10% B; 20–30 min, 95% B.

UGT1A6 = target: T2, UGT1A6 (Homo sapiens, UniProt P19224); assay: Recombinant UGT1A6-catalyzed 4-MU glucuronidation inhibition; conditions: for activity at 100 µM / inhibition at 100 µM: human, pH 7.4, probe 4-methylumbelliferone (4-MU); for activity at 100 µM: UGT1A6, 100 μM of compound, 4-MU substrate, read-out: residual activity; for inhibition type: UGT1A6, Dixon and Lineweaver-Burk plots; for inhibition at 100 µM: UGT1A6, at 100 μM, read-out: inhibition percent
T2 construct: purchased BD Gentest Corp. (Woburn, MA, USA); host or cells: baculovirus-infected insect cells
T2 sequence (P19224 27-532): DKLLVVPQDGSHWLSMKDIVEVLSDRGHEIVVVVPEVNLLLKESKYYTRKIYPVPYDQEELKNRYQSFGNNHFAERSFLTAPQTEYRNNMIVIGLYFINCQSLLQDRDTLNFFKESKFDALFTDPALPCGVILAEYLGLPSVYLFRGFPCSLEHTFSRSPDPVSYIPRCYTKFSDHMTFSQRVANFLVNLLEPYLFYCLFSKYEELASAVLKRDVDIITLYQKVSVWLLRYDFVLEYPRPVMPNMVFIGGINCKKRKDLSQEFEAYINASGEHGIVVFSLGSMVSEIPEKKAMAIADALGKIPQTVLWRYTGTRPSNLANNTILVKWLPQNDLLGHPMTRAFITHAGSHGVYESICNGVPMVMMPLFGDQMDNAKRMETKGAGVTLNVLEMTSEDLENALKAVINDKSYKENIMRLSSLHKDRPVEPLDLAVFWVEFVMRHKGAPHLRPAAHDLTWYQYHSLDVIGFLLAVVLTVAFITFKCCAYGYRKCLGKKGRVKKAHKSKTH
Excerpt: as §1, §2
To determine the inhibition kinetic type and parameters (K i), the reaction velocity (V) was determined at multiple concentrations of maidong's components and 4-MU (or TFP). Dixon plot and Lineweaver-Burk plot were used to fit the data. The inhibition kinetic type was evaluated through determining the intersection point in the Dixon and Lineweaver-Burk plots.
K m value is the substrate concentration in which the velocity reached half of the maximum velocity (V max) of the reaction. K i value is the inhibition constant.

UGT1A9 = target: T3, UGT1A9 (Homo sapiens, UniProt O60656); assay: Recombinant UGT1A9-catalyzed 4-MU glucuronidation inhibition; conditions: pH 7.4, probe 4-methylumbelliferone (4-MU), UGT1A9, 100 μM of compound, 4-MU substrate, read-out: residual activity
T3 construct: purchased BD Gentest Corp. (Woburn, MA, USA); host or cells: baculovirus-infected insect cells
T3 sequence (O60656 26-530): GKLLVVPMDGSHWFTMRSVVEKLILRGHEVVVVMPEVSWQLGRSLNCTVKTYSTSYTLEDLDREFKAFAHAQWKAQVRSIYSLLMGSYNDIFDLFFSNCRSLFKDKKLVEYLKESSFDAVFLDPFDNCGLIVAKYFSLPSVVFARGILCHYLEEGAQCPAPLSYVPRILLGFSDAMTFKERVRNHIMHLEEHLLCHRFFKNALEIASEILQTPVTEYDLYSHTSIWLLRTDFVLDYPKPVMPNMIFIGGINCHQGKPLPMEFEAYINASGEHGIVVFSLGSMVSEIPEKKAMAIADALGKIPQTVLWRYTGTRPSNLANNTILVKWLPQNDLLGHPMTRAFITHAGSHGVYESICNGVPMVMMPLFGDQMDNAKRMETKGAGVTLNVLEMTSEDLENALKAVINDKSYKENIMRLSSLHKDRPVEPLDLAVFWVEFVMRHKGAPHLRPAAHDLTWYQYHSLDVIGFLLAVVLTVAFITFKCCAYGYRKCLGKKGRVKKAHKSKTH
Excerpt: as §1, §2

Row | Compound | activity at 100 µM (UGT1A1) [%] | activity at 100 µM (UGT1A6) [%] | activity at 100 µM (UGT1A9) [%] | Ki (UGT1A6; UGT1A6-catalyzed 4-MU glucuronidation, read-out: inhibition kinetic parameter (Ki)) [µM] | inhibition type (UGT1A6) | inhibition at 100 µM (UGT1A6) [%] | Ki (UGT1A6) [µM]
1 | COc1ccc(C[C@@H]2COc3c(C)c(O)c(C)c(O)c3C2=O)cc1 [MB, methylophiopogonanone B] | 27.9 ± 11.1 | 65.3 ± 2 | 68.2 ± 1.5 | – | – | – | –
2 | CC1CCC2(OC1)OC1CC3C4CC=C5CC(O)CC(O)C5(C)C4CCC3(C)C1C2C (stereo not drawn) [RU, ruscorectal] | 41.5 ± 36.9 | 65.9 ± 11.6 | 110.7 ± 1.1 | – | – | – | –
3 | C[C@@H]1CC[C@@]2(OC1)O[C@H]1C[C@H]3[C@@H]4CC=C5C[C@@H](O[C@@H]6O[C@H](CO)[C@@H](O)[C@H](O[C@@H]7OC[C@@H](O)[C@H](O)[C@H]7O)[C@H]6O[C@@H]6O[C@@H](C)[C@H](O)[C@@H](O)[C@H]6O)CC[C@]5(C)[C@H]4CC[C@]3(C)[C@H]1[C@@H]2C [OD′, ophiopogonin D′] | 81 ± 12.6 | 12.1 ± 1.9 | 134 ± 2.1 | 5.3 | noncompetitively inhibited | 87.9 | –
4 | C[C@@H]1CC[C@@]2(OC1)O[C@H]1C[C@H]3[C@@H]4CC=C5C[C@@H](O)C[C@@H](O[C@@H]6O[C@H](C)[C@H](O)[C@H](O[C@@H]7OC[C@@H](O)[C@H](O)[C@H]7O)[C@H]6O[C@@H]6O[C@@H](C)[C@H](O)[C@@H](O)[C@H]6O)[C@]5(C)[C@H]4CC[C@]3(C)[C@H]1[C@@H]2C [OD, ophiopogonin D] | 77.1 ± 3.8 | 12.8 ± 3.1 | 135 ± 1.5 | – | noncompetitively inhibited | 87.2 | 20.6
5 | Cc1c(O)c(C)c2c(c1O)C(=O)[C@H](Cc1ccc3c(c1)OCO3)CO2 [MA, methylophiopogonanone A] | 31.3 ± 1.3 | 67 ± 1.7 | 38.7 | – | – | – | –
